Assays:
MDA-MB-231 cells [1] = assay: in vitro proliferation assay (crystal violet), MDA-MB-231; type: cell-based, human; conditions: tumour cells MDA-MB-231, concentrations necessary to inhibit MNK activity
Procedure: (§1) Commercially available MDA-MB-231, MDA-MB-468, MCF7 and A375M, IMR90 (IMR-90 (ATCC® CCL-186TH) cells were grown at 37° C. and 5% CO2 in DMEM medium (Dulbecco's Modified Eagle Medium, 4.5 g/I glucose; 30 mg/I L-Glutamine (Gibco)) supplemented with 10% foetal bovine serum, 100 U/ml penicillin and 100 μg/ml streptomycin.
In 96-well plates, 5000 cells were seeded for each condition. After 24 h, the cells were treated with the compound at the corresponding concentration. The stocks of compounds were prepared in 100% DMSO at a concentration 200 times more concentrated than the treatment concentration. Thus, in all cases, the final concentration of DMSO in the medium is 0.5%. After incubation, the medium was removed and the cells were fixed with 4% PFA (100 μl per well) for 30 minutes. Two washes with PBS were performed.
Cells were stained with crystal violet (0.5% in EtOH): 100 μl were added to each well, stirred for 15 minutes, washed with water and left to dry. The content of each well was dissolved in 200 μl of 15% AcOH and the absorbance thereof was measured at 595 nm.

22Rv1 cells = assay: apoptosis assay of 22Rv1 cells (Propidium Iodide staining); type: cell-based; conditions: 22Rv1, 72 h, dual treatment EB1 and Enzalutamide
Procedure: Dual inhibition of AR and eIF4E phosphorylation induces cell death via apoptosis. […] With this aim, 22Rv1 (A) cells were treated either with vehicle (DMSO), enzalutamide, EB1 or a combination of both with the indicated concentrations for 72 h. Whole cell lysates were then prepared and subjected to western blot analysis with the indicated antibodies. […] Increase in CI-PARP levels indicated apoptotic induction under the combinatory treatment. (B) Apoptosis assays of 22Rv1 cell line after treatment with the indicated concentrations of Enzalutamide, EB1 and the combination of both for 72 h, quantified by analysis of fragmented/condensed chromatin after Propidium Iodide staining. […] Representative Propidium Iodide and Hoechst staining images of 22Rv1 cell line were obtained, although data are not shown. Data are mean of two technical replicates from one experiment ±SEM ***p<0.001 two-tailed Student's test

320-kinase panel = assay: selectivity on a 320-kinase panel; type: biochemical; conditions: 1 μM
Procedure: The kinase activity of the compound was measured by a radiometric kinase assay (^33PanQinase® Activity Assay) carried out by Proqinase (www.proqinase.com).
The assays were carried out in 96-well FlashPlates™ by PerkinElmer (Boston, Mass., USA) with a reaction volume of 50 μl. The reaction cocktail was pipetted in 4 steps: (1) 20 μl buffer, (2) 5 μl ATP solution (in H2O), (3) 5 μl compound (in 10% DMSO) and (4) 20 μl enzyme/substrate mixture. Lastly, the cocktail contained 70 mM HEPES-NaOH pH 7.5, 3 mM MgCl2, 3 mM MnCl2, 3 μM sodium orthovanadate, 1.2 mM DTT, 50 μg/ml PEG20000, ATP (1 μM for MNK1 and 0.3 μM for MNK2), [γ-^33P]-ATP (approx. […] per well), protein kinase (variable amounts depending on the batch) and substrate (2 μg/50 μl).
Reaction cocktails were incubated at 30° C. for 60 minutes. The reaction was stopped with 50 μl of 2% H3PO4 (v/v), the plates were sucked, they were washed twice with 200 μl of 0.9% NaCl (w/v) and the incorporation of ^33Pi (MicroBeta microplate scintillation counter, Wallac) was determined. […]
The residual activity (in %) for each well of a particular plate was calculated using the following formula (wherein high control is the kinase activity in absence of an inhibitor and low control is the radioactivity value of the substrate in absence of a kinase).
To study selectivity, residual activity was measured at 1 μM from a 320-kinase panel.

[2] = system: IMR90 cells, non-transformed fibroblasts; assay: cell growth (crystal violet) and cell death (PI/Hoechst) in IMR90 cells; type: cell-based
Procedure: as §1
Knock-out mice of the EB1 target kinases MNK1 and MNK2 are viable (Ueda et al 2004; PMID: 15254222). […] Cell growth was measured by crystal violet assay. Cell death was determined by Propidium Iodid (PI)/Hoechst staining and the ratio of dead cell (PI positive) among all analyzed cells (Hoechst) was determined. Cis-platin treatment was included as positive control. […] Minimal side effects for patients are therefore predictable.

MNK2 = biological target: T1, MNK2 (Homo sapiens, UniProt Q9HBH9); assay: radiometric kinase assay (33PanQinase Activity Assay), MNK2; type: biochemical; conditions: after treatment with 10 μM compound; ATP 0.3 μM; read-out: residual activity of MNK2
T1 construct: purchased Proqinase
T1 sequence (Q9HBH9 whole entry): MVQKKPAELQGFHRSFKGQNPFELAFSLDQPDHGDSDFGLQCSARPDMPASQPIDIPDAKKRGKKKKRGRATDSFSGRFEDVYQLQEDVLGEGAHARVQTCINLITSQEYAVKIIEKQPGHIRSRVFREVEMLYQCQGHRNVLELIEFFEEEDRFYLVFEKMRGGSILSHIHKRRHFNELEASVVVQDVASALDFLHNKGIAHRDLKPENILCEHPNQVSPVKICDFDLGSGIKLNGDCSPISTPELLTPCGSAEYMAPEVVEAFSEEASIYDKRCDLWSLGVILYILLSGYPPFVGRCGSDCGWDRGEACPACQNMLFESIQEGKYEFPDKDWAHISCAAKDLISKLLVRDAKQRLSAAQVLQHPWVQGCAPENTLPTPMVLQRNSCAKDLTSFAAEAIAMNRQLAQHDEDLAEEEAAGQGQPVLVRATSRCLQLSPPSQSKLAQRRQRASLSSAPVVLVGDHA
Procedure: The assays were carried out in 96-well FlashPlates™ by PerkinElmer (Boston, Mass., USA) with a reaction volume of 50 μl. The reaction cocktail was pipetted in 4 steps: (1) 20 μl buffer, (2) 5 μl ATP solution (in H2O), (3) 5 μl compound (in 10% DMSO) and (4) 20 μl enzyme/substrate mixture. […]
To screen compounds, the residual activity of both kinases was analysed after treatment with 10 μM of the compounds.

MCF7 cells = assay: cell growth of MCF7 cells with tamoxifen (crystal violet); type: cell-based; conditions: combination with tamoxifen
Procedure: as §1
Cell growth in the presence of EB1, tamoxifen or the combination of both inhibitors was measured by crystal violet. Data were normalized to the vehicle control.

[3] = system: eIF4E phosphorylation, AR and AR-V7 in 22Rv1 cells; assay: western blot analysis in 22Rv1 cells; type: cell-based; conditions: for levels of AR, AR-V7 and eIF4E phosphorylation: 22Rv1, 72 h
MDA-MB-231 cells [4] = assay: FACS analysis of cell cycle and subG1, MDA-MB-231; type: cell-based; conditions: MDA-MB-231, higher concentrations
Procedure: To determine how cell growth is affected at higher concentrations of EB1, a FACS analysis was performed to monitor the state of the cell cycle and the percentage of cells in subG1 as an indicator of cell death. […] Equivalent results have been described for the MNK1/2 inhibitor BAY 11433296 (FIG. 4).

Nc1n[nH]c2nc(-c3ccccc3)cc(-c3ccccc3)c12 [EB1, 4,6-diphenyl-1H-pyrazolo[3,4-b]pyridin-3-amine]
effect on cell growth (MDA-MB-231 cells [1]): does not affect the cell growth
apoptotic cell population (22Rv1 cells): Remarcable increase in apoptotic cell population
number of other kinases affected in an equivalent manner (320-kinase panel): 16
cell death ([2]; IMR90, PI/Hoechst staining): does not induce cell death
cell growth arrest ([2]; IMR90, crystal violet): does not cause significant cell growth arrest
remaining activity at 10 µM (MNK2): 52%
sensitivity of MCF7 cells to tamoxifen (MCF7 cells): increased sensitivity to tamoxifen
inhibition of eIF4E phosphorylation ([3]; 22Rv1, 24 h EB1 treatment): Dose dependent inhibition
levels of AR, AR-V7 and eIF4E phosphorylation ([3]; EB1 alone): reduction of AR, its splice variant AR-V7 and eIF4E phosphorylation
levels of AR, AR-V7 and eIF4E phosphorylation ([3]; combination of EB1 and enzalutamide): more pronounced
cells in the G1 phase of the cell cycle (MDA-MB-231 cells [4]): increase of cells could be observed in the G1 phase
